From article PMC4297516 (Bioorganic & medicinal chemistry letters, 2014)

Legend:
[1] = target: human D2 receptors expressed in stably transfected HEK 293 cells (Homo sapiens, UniProt P14416); assay: forskolin-dependent whole cell adenylyl cyclase inhibition assay, D2; assay type: cell-based; settings: HEK293, read-out: Intrinsic activity hD2 HEK
[2] = target: human D3 receptors expressed in stably transfected HEK 293 cells (Homo sapiens, UniProt P35462); assay: forskolin-dependent whole cell adenylyl cyclase inhibition assay, D3; assay type: cell-based; settings: HEK293, read-out: Intrinsic activity hD3 HEK
human D3 receptors expressed in stably transfected HEK 293 cells, sequence (P35462 whole entry): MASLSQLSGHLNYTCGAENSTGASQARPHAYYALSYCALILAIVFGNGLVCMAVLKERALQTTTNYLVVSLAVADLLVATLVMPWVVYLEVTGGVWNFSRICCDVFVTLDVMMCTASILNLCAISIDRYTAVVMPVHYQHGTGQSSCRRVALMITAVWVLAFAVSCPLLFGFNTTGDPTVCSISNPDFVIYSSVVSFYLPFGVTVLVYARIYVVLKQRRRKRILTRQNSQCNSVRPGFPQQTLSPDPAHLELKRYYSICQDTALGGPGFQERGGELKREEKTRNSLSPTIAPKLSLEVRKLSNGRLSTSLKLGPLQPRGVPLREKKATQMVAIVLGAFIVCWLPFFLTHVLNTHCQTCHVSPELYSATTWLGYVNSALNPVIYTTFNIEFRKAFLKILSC

human D2 receptors expressed in stably transfected HEK 293 cells, sequence (P14416 whole entry): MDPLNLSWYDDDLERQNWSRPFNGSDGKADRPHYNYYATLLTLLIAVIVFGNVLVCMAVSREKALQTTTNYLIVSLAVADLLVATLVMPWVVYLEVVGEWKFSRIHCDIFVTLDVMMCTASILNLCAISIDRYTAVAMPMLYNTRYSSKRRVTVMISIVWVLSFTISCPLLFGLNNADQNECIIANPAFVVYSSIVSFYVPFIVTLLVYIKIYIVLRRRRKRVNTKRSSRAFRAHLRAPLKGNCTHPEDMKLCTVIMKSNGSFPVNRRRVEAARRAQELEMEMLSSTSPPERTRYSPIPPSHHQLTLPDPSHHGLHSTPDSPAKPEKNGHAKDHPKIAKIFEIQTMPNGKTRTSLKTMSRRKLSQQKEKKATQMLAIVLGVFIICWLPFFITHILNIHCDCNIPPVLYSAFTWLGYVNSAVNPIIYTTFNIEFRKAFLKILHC

Q: Which Emax [1] does the source give for `COc1ccccc1N1CCN(CCCCNC(=O)c2ccc(CCF)cc2)CC1` [WC 44] here?
A: 35.3 ± 1%

Q: How did the Emax [1] turn out when `COc1ccccc1N1CCN(CCCCNC(=O)c2ccc(N(C)C)cc2)CC1` [WC 10, 4-(Dimethylamino)-N-[4-(4-(2-methoxyphenyl)piperazin-1-yl)butyl]benzamide] was run?
A: 33.5 ± 3.1%

Q: And the Emax [2]?
A: 18.7 ± 2.2%
